Assay results: article PMC9736874, “Development of Hydroxamate Derivatives Containing a Pyrazoline Moiety as APN Inhibitors to Overcome Angiogenesis” (Molecules, 2022)

Legend:
K562 cells = test: Anti-proliferative assay (MTT), K562; format: cell-based; details: Homo sapiens, 48 h, triplicate, mean ± SD
Procedure: (§1) The MTT method was used for the determination of anti-proliferative activities of selected compounds against tumor cells. Human histiocytic lymphoma cells U937, human chronic myeloid leukemia cells K562, liver carcinoma alexander cells PLC/PRF/5, human prostate cancer cells PC-3, human ovarian clear cell carcinoma cells ES-2, human hepatocellular carcinoma cells HepG2 were selected as tested tumor cell lines. Firstly, the cells were cultured in RPMI 1640 medium with 10% FBS at 37 °C in 5% CO2 humidified incubator. Cells (100 μL) in logarithmic phase were inoculated in 96-well plates and allowed to grow for 4 h. Subsequently, inhibitors (100 μL) at the tested concentration were added, followed by incubation for 48 h. Then, to the mixture was added MTT solution (20 μL, 5 mg/mL) and further incubated for 4 h. The plates were centrifuged at 800 rpm for 3 min. The supernatant was poured off and the formed formazan was dissolved in DMSO (200 μL). Finally, the mixture was shaken for 15 min and the absorbance values of the formazan solution were measured at 570 nm with a plate reader (Varioskan, Thermo, Waltham, MA, USA). All the tumor cells were owned by our laboratory.

ES-2 cells = test: Anti-proliferative assay (MTT), ES-2; format: cell-based; details: Homo sapiens, 48 h, triplicate, mean ± SD
Procedure: as §1

PC-3 cells = test: Anti-proliferative assay (MTT), PC-3; format: cell-based; details: Homo sapiens, 48 h, triplicate, mean ± SD
Procedure: as §1

HepG2 cells = test: Anti-proliferative assay (MTT), HepG2; format: cell-based; details: Homo sapiens, 48 h, triplicate, mean ± SD
Procedure: as §1

PLC/PRF/5 cells = test: Anti-proliferative assay (MTT), PLC/PRF/5; format: cell-based; details: Homo sapiens, 48 h, triplicate, mean ± SD
Procedure: as §1

U937 cells = test: Anti-proliferative assay (MTT), U937; format: cell-based; details: Homo sapiens, U-937, 48 h, triplicate, mean ± SD
Procedure: as §1

[1] = biological target: T1, porcine kidney aminopeptidase N (APN) (Sus scrofa, UniProt P15145); test: Enzymatic inhibition assay against APN in vitro (L-Leu-p-nitroanilide substrate); format: biochemical; details: for IC50: soluble APN from porcine kidney microsomal, 37 °C, 30 min, triplicate, mean ± SD
T1 construct: purchased Enzo Life Sciences; host or cells: porcine kidney microsomes (tissue-derived)
T1 sequence (P15145 1-963): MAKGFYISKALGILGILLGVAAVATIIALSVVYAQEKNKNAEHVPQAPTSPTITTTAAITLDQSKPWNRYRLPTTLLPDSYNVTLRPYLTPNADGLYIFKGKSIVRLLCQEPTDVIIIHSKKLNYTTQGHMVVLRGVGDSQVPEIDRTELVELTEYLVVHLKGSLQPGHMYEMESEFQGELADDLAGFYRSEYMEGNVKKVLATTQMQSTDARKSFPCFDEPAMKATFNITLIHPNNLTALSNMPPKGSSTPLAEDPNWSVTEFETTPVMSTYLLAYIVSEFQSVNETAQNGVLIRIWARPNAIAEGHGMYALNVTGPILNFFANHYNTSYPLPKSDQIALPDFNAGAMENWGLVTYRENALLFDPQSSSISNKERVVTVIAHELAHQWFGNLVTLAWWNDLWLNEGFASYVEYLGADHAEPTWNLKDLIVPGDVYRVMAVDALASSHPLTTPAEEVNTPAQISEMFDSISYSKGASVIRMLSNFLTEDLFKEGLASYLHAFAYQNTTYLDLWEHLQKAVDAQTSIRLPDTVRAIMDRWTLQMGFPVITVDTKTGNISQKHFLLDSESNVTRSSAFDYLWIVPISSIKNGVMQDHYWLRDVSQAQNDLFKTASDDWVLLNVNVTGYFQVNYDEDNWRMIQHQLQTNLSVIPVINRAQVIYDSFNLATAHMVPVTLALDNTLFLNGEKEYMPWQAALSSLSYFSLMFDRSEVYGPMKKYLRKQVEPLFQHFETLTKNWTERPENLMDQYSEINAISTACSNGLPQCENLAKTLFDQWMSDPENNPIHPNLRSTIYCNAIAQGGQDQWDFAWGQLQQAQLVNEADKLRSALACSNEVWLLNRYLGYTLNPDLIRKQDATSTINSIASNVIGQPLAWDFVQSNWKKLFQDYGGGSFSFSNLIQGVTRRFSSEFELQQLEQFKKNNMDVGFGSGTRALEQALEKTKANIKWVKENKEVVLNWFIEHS
Procedure: The enzymatic inhibitory activities of target compounds were evaluated using L-Leu-p-nitroanilide (Sigma-Aldrich, St. Louis, MO, USA) as substrate and soluble APN from porcine kidney microsomal (Enzo Life Sciences, Farmingdale, NY, USA) as enzyme. Firstly, the substrate was dissolved in DMSO to a concentration of 16 mmol/L and the enzyme was dissolved in buffer solution of 50 mM PBS (pH = 7.2) for a concentration of 0.15 IU/L. Subsequently, inhibitors (40 μL) and PBS (145 μL) were added into the 96-well plates, followed by the addition of substrate (5 μL) and enzyme (10 μL). After incubation at 37 °C for 30 min, the absorbance values were measured at 405 nm with a plate reader (Varioskan, Thermo Fisher Scientific, Waltham, MA, USA).

rat thoracic aorta rings = test: Rat aortic ring assay (ex vivo anti-angiogenesis); format: cell-based, Sprague Dawley rats
Procedure: The thoracic aortas were separated from 8- to 10-week-old male Sprague Dawley rats and cut into rings with a 1-mm-long cross-section after removal of the connective tissues around the aortas. The fresh aortic ring was added into the 96-well plates pre-coated with matrigel (50 μL, BD bioscience), and covered with another 50 μL of matrigel. After incubation at 37 °C in 5% CO2 for 0.5 h, the tested compounds (100 μL) in M199 culture medium with 10% FBS was added to the mixture and incubated at 37 °C in 5% CO2 for 9 d. For the treatment group, the M199 culture medium with 10% FBS and inhibitors was changed every three days. For the control group, the M199 culture medium with 10% FBS and 0.5% DMSO was changed every three days. The formed micro-vessels were photographed by inverted microscope at 100× magnification. Experiments were repeated three times. All experiments involving laboratory animals were performed with the approval of the Laboratory Animal Welfare Review Committee of Shandong University of Traditional Chinese Medicine.

`CC(C)C[C@H](NC(=O)[C@@H](O)[C@H](N)Cc1ccccc1)C(=O)O` [Bestatin, bestatin, reference compound] showed an IC50 (K562 cells) of over 500 µM, an IC50 (ES-2 cells) of over 500 µM and an IC50 (PC-3 cells) of over 500 µM. It also gave an IC50 (HepG2 cells) of over 500 µM, an IC50 (PLC/PRF/5 cells) of over 500 µM and an IC50 (U937 cells) of over 500 µM.
With `CC(=O)N1N=C(c2ccccc2I)CC1c1c(Cl)cccc1OCC(=O)NO` (stereo not shown) [Compound 14y, 2-(2-(1-Acetyl-3-(2-iodophenyl)-4,5-dihydro-1H-pyrazol-5-yl)-3-chlorophenoxy)-N-hydroxyacetamide] the IC50 [1] was 0.023 ± 0.001 µM and the melting point was 168 to 170 °C.
In the case of `NC(=O)N1N=C(c2ccccc2I)CC1c1ccccc1OCC(=O)NO` (stereo not shown) [Compound 14j, 5-(2-(2-(Hydroxyamino)-2-oxoethoxy)phenyl)-3-(2-iodophenyl)-4,5-dihydro-1H-pyrazole-1-carboxamide], the IC50 [1] is reported as 0.044 ± 0.003 µM and the melting point is reported as 164 to 166 °C.
Molecule `CC(=O)N1N=C(c2ccccc2C)CC1c1ccccc1OCC(=O)NO` (stereo not shown) [Compound 14k, 2-(2-(1-Acetyl-3-(o-tolyl)-4,5-dihydro-1H-pyrazol-5-yl)phenoxy)-N-hydroxyacetamide] has an IC50 [1] of 0.21 ± 0.01 µM and a melting point of 170 to 172 °C.
Work on `COc1ccc(C2=NN(C(C)=O)C(c3ccccc3OCC(=O)NO)C2)cc1` (stereo not shown) [Compound 14f, 2-(2-(1-Acetyl-3-(4-methoxyphenyl)-4,5-dihydro-1H-pyrazol-5-yl)phenoxy)-N-hydroxy acetamide] yielded an IC50 [1] of 3.8 ± 0.2 µM and a melting point of 120 to 122 °C.
For `COc1ccccc1C1=NN(C(C)=O)C(c2ccccc2OCC(=O)NO)C1` (stereo not shown) [Compound 14d, 2-(2-(1-Acetyl-3-(2-methoxyphenyl)-4,5-dihydro-1H-pyrazol-5-yl)phenoxy)-N-hydroxy acetamide], the IC50 [1] was 0.32 ± 0.01 µM and the melting point was 170 to 172 °C.
For `CC(=O)N1N=C(c2c(Cl)cccc2Cl)CC1c1ccccc1OCC(=O)NO` (stereo not shown) [Compound 14o, 2-(2-(1-Acetyl-3-(2,6-dichlorophenyl)-4,5-dihydro-1H-pyrazol-5-yl)phenoxy)-N-hydroxyacetamide], the IC50 (K562 cells) was 10.4 ± 1.2 µM, the IC50 (ES-2 cells) was 115 ± 9.7 µM and the IC50 (PC-3 cells) was 45.8 ± 4.1 µM. The IC50 (HepG2 cells) was 84.2 ± 7.6 µM, the IC50 (PLC/PRF/5 cells) was 88.5 ± 7.4 µM and the “fold more potent against APN than lead compound 13c” value ([1]; ratio of APN IC50 values) was “over 9 fold”. For the same molecule, the “fold more potent against APN than positive control bestatin” value ([1]; ratio of APN IC50 values) was “over 1419 fold”, the IC50 [1] was 0.0062 ± 0.0004 µM and the IC50 (U937 cells) was 38.3 ± 3.6 µM. The “growth of micro-vessels derived from the thoracic aorta rings” value (rat thoracic aorta rings; 1 μM and 50 μM, 9 d incubation) was “could prevent the growth of micro-vessels derived from the thoracic aorta rings in a dose–dependent manner”, the “micro-vessels at 50 μM compared with the group treated with 1 μM” value (rat thoracic aorta rings; 50 μM, 9 d incubation) was “obviously reduced micro-vessels” and the “anti-angiogenic activity compared with bestatin” value (rat thoracic aorta rings; same concentration of 50 μM) was “much better than that of bestatin”. For the same molecule, the melting point was 174 to 176 °C.
Work on `CC(=O)N1N=C(c2ccccc2I)CC1c1ccc(Br)cc1OCC(=O)NO` (stereo not shown) [Compound 14s, 2-(2-(1-Acetyl-3-(2-iodophenyl)-4,5-dihydro-1H-pyrazol-5-yl)-5-bromophenoxy)-N-hydroxyacetamide] yielded an IC50 [1] of 2.1 ± 0.2 µM and a melting point of 168 to 170 °C.
`CC(=O)N1N=C(c2ccccc2I)CC1c1cc(Br)ccc1OCC(=O)NO` (stereo not shown) [Compound 14u, 2-(2-(1-Acetyl-3-(2-iodophenyl)-4,5-dihydro-1H-pyrazol-5-yl)-4-bromophenoxy)-N-hydroxyacetamide] showed an IC50 [1] of 0.37 ± 0.02 µM and a melting point of 106 to 108 °C.
Molecule `CC(=O)N1N=C(c2ccccc2I)CC1c1ccccc1OCC(=O)NO` (stereo not shown) [Compound 14i, 2-(2-(1-Acetyl-3-(2-iodophenyl)-4,5-dihydro-1H-pyrazol-5-yl)phenoxy)-N-hydroxy acetamide] has an IC50 [1] of 0.015 ± 0.001 µM and a melting point of 174 to 176 °C.
Molecule `CC(=O)N1N=C(c2ccccc2I)CC1c1cccc(Br)c1OCC(=O)NO` (stereo not shown) [Compound 14q, 2-(2-(1-Acetyl-3-(2-iodophenyl)-4,5-dihydro-1H-pyrazol-5-yl)-6-bromophenoxy)-N-hydroxyacetamide] has an IC50 [1] of 3.5 ± 0.2 µM and a melting point of 96 to 98 °C.
